From DBAASP
Values after ≈ are worked out from the molar mass of the structure shown. Values joined by “and” are separate entries in the source; they are usually repeats but may differ in a detail not shown here. Equal values may be shown once.

How the values were obtained:
Test in all cases: ≥ marks a high value that may be exact or a test limit, other limits are often not marked, values filed in µg/mL are converted to µM
[1] = tested on: Streptococcus mutans UA159
[2] = tested on: Enterococcus faecalis
[3] = tested on: Streptococcus sanguinis NY101
[4] = tested on: Escherichia coli W3110
[5] = tested on: Staphylococcus aureus
[6] = tested on: Pseudomonas aeruginosa PAK
[7] = tested on: Streptococcus sobrinus ATCC 33478
[8] = tested on: Escherichia coli D31
[9] = tested on: Salmonella enterica subsp. enterica serovar Typhimurium ATCC 700408
[10] = tested on: Klebsiella pneumoniae K6 ATCC 700603
[11] = tested on: Staphylococcus carnosus KHS
[12] = tested on: Escherichia coli ATCC 25922
[13] = tested on: Enterococcus faecalis 981
[14] = tested on: Bacillus licheniformis X39
[15] = tested on: Psychrobacter faecalis X29
[16] = tested on: Staphylococcus aureus ATCC 25923
[17] = tested on: Klebsiella pneumoniae 08040724
[18] = tested on: Rhodococcus rhodochrous X15
[19] = tested on: Serratia rubidaea X01
[20] = tested on: Staphylococcus aureus 1056
[21] = tested on: Escherichia coli O157:H7
[22] = tested on: Mammaliicoccus lentus
[23] = tested on: Pseudomonas syringae pv. tabaci
[24] = tested on: Bacillus megaterium Bm11
[25] = tested on: Phytophthora nicotianae PG344
[26] = tested on: Micrococcus luteus
[27] = tested on: Candida tropicalis
[28] = tested on: Yersinia pseudotuberculosis YPIII
[29] = tested on: Staphylococcus aureus 930918-3
[30] = tested on: Pseudomonas aeruginosa MR3007

CC[C@H](C)[C@H](NC(=O)[C@H](Cc1ccccc1)NC(=O)CNC(=O)CNC(=O)CNC(=O)[C@H](Cc1ccccc1)NC(=O)[C@H](Cc1cnc[nH]1)NC(=O)[C@H](CC(C)C)NC(=O)[C@H](Cc1cnc[nH]1)NC(=O)[C@H](Cc1ccccc1)NC(=O)[C@H](Cc1cnc[nH]1)NC(=O)[C@@H](N)Cc1ccccc1)C(=O)N[C@@H](CCCCN)C(=O)N[C@@H](Cc1cnc[nH]1)C(=O)N[C@@H](Cc1ccccc1)C(=O)N[C@H](C(=O)N[C@@H](Cc1cnc[nH]1)C(=O)N[C@@H](CCCN=C(N)N)C(=O)N[C@@H](Cc1ccccc1)C(N)=O)[C@@H](C)CC [FHFHLHFGGGFIKHFIHRF]
MIC [1]: 13.4 µM (≈ 32 µg/mL) | MIC [2]: 26.2 µM (≈ 62.5 µg/mL) | MIC [3]: 26.2 µM (≈ 62.5 µg/mL) | MIC [4]: 26.2 µM (≈ 62.5 µg/mL) | MIC [5]: 52.5 µM (≈ 125 µg/mL) | MIC [6]: 26.2 µM (≈ 62.5 µg/mL) | MIC [7]: 26.2 µM (≈ 62.5 µg/mL)

CC[C@H](C)[C@H](NC(=O)[C@H](Cc1ccc(O)cc1)NC(=O)[C@@H](NC(=O)[C@@H]1CCCN1C(=O)[C@H](CCCN=C(N)N)NC(=O)[C@H](CC(N)=O)NC(=O)[C@H](CC(N)=O)NC(=O)CN)C(C)C)C(=O)N1CCC[C@H]1C(=O)N[C@@H](CCC(N)=O)C(=O)N1CCC[C@H]1C(=O)N[C@@H](CCCN=C(N)N)C(=O)N1CCC[C@H]1C(=O)N1CCC[C@H]1C(=O)N[C@@H](Cc1cnc[nH]1)C(=O)N1CCC[C@H]1C(=O)N[C@@H](CC(C)C)C(N)=O [GNNRPVYIPQPRPPHPL]
MIC [8]: ≥ 65.6 µM | MIC [9]: ≥ 32.8 µM | MIC [10]: ≥ 32.8 µM

CC[C@H](C)[C@H](NC(=O)[C@H](CO)NC(=O)[C@H](Cc1ccccc1)NC(=O)[C@H](CC(C)C)NC(=O)[C@@H](N)CO)C(=O)N[C@@H](Cc1ccccc1)C(=O)N[C@@H](CCCCN)C(=O)N[C@H](C(=O)N[C@@H](C)C(=O)N[C@@H](C)C(=O)N[C@@H](CCCCN)C(=O)N[C@@H](Cc1ccccc1)C(=O)N[C@H](C(=O)NCC(=O)N[C@@H](CCCCN)C(=O)N[C@@H](CC(N)=O)C(=O)N[C@@H](CC(C)C)C(=O)N[C@@H](CC(C)C)C(=O)N[C@@H](CCCCN)C(=O)N[C@@H](CCC(N)=O)C(=O)N[C@@H](C)C(=O)NCC(=O)N[C@@H](CCCCN)C(=O)N[C@@H](C)C(=O)NCC(=O)N[C@@H](CC(C)C)C(=O)N[C@@H](CCC(=O)O)C(=O)N[C@H](C(=O)N[C@@H](CC(C)C)C(=O)N[C@@H](C)C(=O)N[C@H]1CSSC[C@@H](C(=O)O)NC(=O)[C@H](CCC(=O)O)NC(=O)[C@H](CC(N)=O)NC(=O)[C@H](CCCCN)NC(=O)[C@H](C)NC(=O)[C@H](CCCCN)NC1=O)[C@@H](C)O)C(C)C)[C@@H](C)O [SLFSIFKTAAKFVGKNLLKQAGKAGLETLACKAKNEC]
MIC [11]: 1.2 µM (≈ 4.71 µg/mL) | MIC [12]: 75 µM (≈ 295 µg/mL) | MIC [13]: 19 µM (≈ 74.6 µg/mL) | MIC [14]: 9 µM (≈ 35.3 µg/mL) | MIC [15]: 4.5 µM (≈ 17.7 µg/mL) | MIC [16]: 9 µM (≈ 35.3 µg/mL) | MIC [17]: ≥ 150 µM | MIC [18]: 1.2 µM (≈ 4.71 µg/mL) | MIC [19]: 1.2 µM (≈ 4.71 µg/mL)

CC[C@H](C)[C@@H]1NC(=O)[C@H](CCCN=C(N)N)NC(=O)[C@H](CC(C)C)NC(=O)CNC(=O)[C@@H]2CSSC[C@@H]3NC(=O)[C@H](CC(C)C)NC(=O)CNC(=O)[C@H](CC(C)C)NC(=O)[C@H](Cc4ccccc4)NC(=O)[C@H](CCCN=C(N)N)NC(=O)[C@H](CO)NC(=O)[C@@H]4CCCN4C(=O)[C@H](Cc4ccccc4)NC(=O)[C@H](CC(N)=O)NC(=O)[C@H](CSSC[C@@H](C(=O)N[C@@H](CO)C(=O)N[C@@H](CCCN=C(N)N)C(=O)N[C@H](C(=O)N[C@@H](Cc4c[nH]c5ccccc45)C(=O)N[C@H](C(=O)O)C(C)C)C(C)C)NC(=O)[C@H](CSSC[C@H](NC(=O)[C@H](CCC(N)=O)NC(=O)[C@H](C)NC(=O)[C@H](CCC(=O)O)NC(=O)[C@H](CC(N)=O)NC(=O)[C@@H](NC(=O)[C@@H]4CCCN4C(=O)[C@@H](N)CC(C)C)C(C)C)C(=O)N[C@@H](CCCN=C(N)N)C(=O)N[C@@H](CCC(N)=O)C(=O)N[C@@H](C(C)C)C(=O)NCC(=O)NCC(=O)N[C@@H](Cc4ccc(O)cc4)C(=O)N2)NC(=O)[C@@H]2CCCN2C(=O)[C@H](Cc2cnc[nH]2)NC(=O)[C@H](CC(N)=O)NC(=O)[C@H](CCCN=C(N)N)NC(=O)[C@H]([C@@H](C)O)NC3=O)NC1=O [LPVNEAQCRQVGGYCGLRICNFPSRFLGLCTRNHPCCSRVWV]
MIC [20]: 2.41 µM (≈ 11.5 µg/mL) | MIC [21]: 2.53 µM (≈ 12 µg/mL)

C[C@H](NC(=O)[C@@H](N)CO)C(=O)N1CCC[C@H]1C(=O)N[C@@H](CCCN=C(N)N)C(=O)NCC(=O)N[C@H]1CSSC[C@@H](C(=O)N[C@@H](CCCCN)C(N)=O)NC(=O)[C@@H]2CCCN2C(=O)[C@H](CCCCN)NC(=O)[C@@H]2CCCN2C(=O)[C@@H]2CCCN2C(=O)[C@H](Cc2ccc(O)cc2)NC(=O)[C@H](CO)NC(=O)[C@H](CCCCN)NC(=O)[C@H]([C@@H](C)O)NC(=O)[C@H](Cc2c[nH]c3ccccc23)NC1=O [SAPRGCWTKSYPPKPCK]
MIC [22]: 7 µM (≈ 13.3 µg/mL) | MIC [23]: ≥ 80 µM | MIC [24]: 3 µM (≈ 5.71 µg/mL) | MIC [25]: ≥ 32 µM | MIC [26]: 5 µM (≈ 9.52 µg/mL) | MIC [27]: 7.4 µM (≈ 14.1 µg/mL) | MIC [28]: 9 µM (≈ 17.1 µg/mL)

CC[C@H](C)[C@H](NC(=O)[C@H](CCCCN)NC(=O)[C@H](CCCCN)NC(=O)[C@H](CC(C)C)NC(=O)[C@H](CCCCN)NC(=O)[C@H](CCC(=O)O)NC(=O)[C@H](CCCCN)NC(=O)[C@@H](NC(=O)[C@H](CCCCN)NC(=O)[C@H](CC(N)=O)NC(=O)[C@H](CCCN=C(N)N)NC(=O)[C@H](Cc1ccccc1)NC(=O)[C@H](CCCCN)NC(=O)[C@H](CCCN=C(N)N)NC(=O)[C@H](CC(C)C)NC(=O)[C@H](CCCN=C(N)N)NC(=O)[C@H](CCCCN)NC(=O)[C@H](CCCN=C(N)N)NC(=O)[C@H](CC(C)C)NC(=O)CN)[C@@H](C)CC)C(=O)NCC(=O)O [GLRKRLRKFRNKIKEKLKKIG]
MIC [29]: 0.69 µM and 0.84 µM | MIC [30]: 0.27 µM and 0.34 µM
